Here are results for one compound from patent US6992188B1, “Substituted heterocyclic derivatives” (Pfizer, Inc., priority 1995, dated 2006).

Broadly, the melting point is the temperature, or range, at which the solid turns liquid.

On to `CCC(CC)n1c(=O)[nH]c2c(Oc3c(C)cc(C)cc3C)nc(C)cc21` [Example 4, 1-(1-Ethylpropyl)-6-methyl-4-(2,4,6-trimethylphenoxy)-1,3-dihydro-imidazo[4,5-c]pyridin-2-one], for which the melting point was in the range of 235 to 237 °C.
